Patent US20090048285A1, “Pyrrolopyridines Useful in the Treatment of Inflammation” (priority 2005, published 2009)

Target: T1, mPGES-1 (Homo sapiens, UniProt O14684)
T1 construct: made in house; host or cells: E. coli (membrane fraction)
T1 sequence (O14684 1-152): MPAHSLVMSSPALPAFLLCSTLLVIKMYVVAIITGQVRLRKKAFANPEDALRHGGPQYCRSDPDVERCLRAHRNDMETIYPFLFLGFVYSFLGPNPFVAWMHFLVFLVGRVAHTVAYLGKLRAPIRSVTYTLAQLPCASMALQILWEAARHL
Experiment: mPGES-1 assay: conversion of PGH2 to PGE2, HPLC analysis
Assay type: biochemical
Settings: mPGES-1 expressed in E. coli; 25 min preincubation with inhibitor, 60 s with PGH2, room temperature
Experimental: In the assay in PGES-1 catalyses the reaction where the substrate PGH2 is converted to PGE2. mPGES-1 is expressed in E. coli and the membrane fraction is dissolved in 20 mM NaPi-buffer pH 8.0 and stored at −80° C. In the assay mPGES-1 is dissolved in 0.1M KPi-buffer pH 7.35 with 2.5 mM glutathione. The stop solution consists of H2O/MeCN (7/3), containing FeCl2 (25 mM) and HCl (0.15 M). The assay is performed at room temperature in 96-well plates. Analysis of the amount of PGE2 is performed with reversed phase HPLC (Waters 2795 equipped with a 3.9×150 mm C18 column). The mobile phase consists of H2O/MeCN (7/3), containing TFA (0.056%), and absorbance is measured at 195 nm with a Waters 2487 LTV-detector.
The following is added chronologically to each well: • 1. 100 μL mPGES-1 in KPi-buffer with glutathione. Total protein concentration: 0.02 mg/mL. • 2. 1 μL inhibitor in DMSO. Incubation of the plate at room temperature for 25 minutes. • 3. 4 μL of a 0.25 mM PGH2 solution. Incubation of the plate at room temperature for 60 seconds. • 4. 100 μL stop solution. • 180 μL per sample is analyzed with HPLC.

Compound	IC50
CC(C)Oc1ccc(-n2c(C(=O)O)cc3cc(Oc4cccc(C(F)(F)F)c4)ncc32)cc1 [Example 1, 1-(4-Isopropoxyphenyl)-5-(3-trifluoromethylphenoxy)pyrrolo[2,3-c]pyridine-2-carboxylic Acid]	2300 nM
CC(C)Oc1ccc(-n2c(C(=O)O)cc3c(-c4ccc(C(F)(F)F)cc4)nc(Cl)cc32)cc1 [Example 3, 6-Chloro-1-(4-isopropoxyphenyl)-4-(4-trifluoromethylphenyl)pyrrolo[3,2-c]pyridine-2-carboxylic acid]	750 nM
